What is called solubility is the dissolved amount per volume that the medium holds. A word on the IC50: it is the concentration that inhibits the measured activity by half. Read a high IC50 as lower potency.

SMILES strings stand for the structures. Values after ≈ are worked out from the molar mass of the structure shown. Values joined by “and” are separate entries in the source; they are usually repeats but may differ in a detail not shown here. Identical values can stand only once. A value given as a limit tells only on which side of the number the result lay.

The nature of data set [1]: Solubility in water, at 20 degrees Centigrade. It is filed as physicochemical.
Data set [2] deals with Carbonic anhydrase (Bos taurus, UniProt P00921+Q95323+P18915+Q3SZX4).
Description: In vitro concentration that causes 50% inhibition of carbonic anhydrase carbonate hydro-lyase (EC.4.2.1.1) isolated from bovine erythrocyte

On to `Br.N[C@@H](Cc1ccccc1)C(=O)Nc1nnc(S(N)(=O)=O)s1`, for which the solubility in data set [1] (water, read-out: Solubility) stood at 132 mM. In data set [2], this compound came in with an IC50 of 30 nM. With `Br.NCC(=O)Nc1nnc(S(N)(=O)=O)s1`, the solubility in data set [1] (water, read-out: Solubility) was 896 mM.

For `NS(=O)(=O)c1nnc(NC(=O)CNC(=O)OCc2ccccc2)s1`, the solubility in data set [1] (water, read-out: Solubility) was below 0.1 mM. For the same compound, the IC50 in data set [2] is 8 nM. As for `CC(C)COC(=O)Nc1nnc(S(N)(=O)=O)s1`, the solubility in data set [1] (water, read-out: Solubility) was determined as 103 mM (≈ 28900 µg/mL). For the same compound, the IC50 in data set [2] was 550 nM and 570 nM. With `C[C@H](NC(=O)OCc1ccccc1)C(=O)Nc1nnc(S(N)(=O)=O)s1`, in data set [1] (water, read-out: Solubility), the solubility was below 0.1 mM. The same compound gave an IC50 in data set [2] of 7 nM.

With `Br.C[C@H](N)C(=O)Nc1nnc(S(N)(=O)=O)s1`, the solubility in data set [1] (water, read-out: Solubility) came out at 701 mM. Further, the IC50 in data set [2] worked out at 9 nM.

As for `NCCCCC(=O)Nc1nnc(S(N)(=O)=O)s1`, the solubility in data set [1] (buffer) stood at 0.7 mM (≈ 196 µg/mL). Moreover, the IC50 in data set [2] is 440 nM and 370 nM.

For `NS(=O)(=O)c1nnc(NC(=O)[C@H](Cc2ccccc2)NC(=O)OCc2ccccc2)s1`, the solubility in data set [1] (water, read-out: Solubility) was below 0.1 mM. In data set [2], this compound showed an IC50 of 5 nM. Take `CC(=O)Nc1nnc(S(N)(=O)=O)s1` [ACETAZOLAMIDE]: the solubility in data set [1] (water, read-out: Solubility) is below 0.1 mM.

For the origin of these results see ChEMBL document CHEMBL1126000, “Synthesis of 2-substituted-1,3,4-thiadiazole-5-sulphonamides as novel water-soluble inhibitors of carbonic anhydrase” (Bioorg Med Chem Lett, 1991).
